In US8440724B2, “Inhibiting neurotransmitter reuptake” (Mayo Foundation for Medical Education and Research, priority 2008, dated 2013):
Like-named read-outs stand apart in the source and are kept apart here.

What was measured:
[1] = system: hSERT, hNET, hDAT; assay: Human transporter binding: rank order and range of potency over the three transporters; details: for Potency (rank-order of potency of binding; S = hSERT, N = hNET, D = hDAT): from KD values; for Potency Range (difference between most potent and least potent binding): ratio of KD over hSERT, hNET, hDAT
Description: (§1) The program was modified to calculate the Hill coefficient (nH). Data are presented as geometric mean±S.E.M. of at least three independent experiments. One-component models and two-component models were compared using the root mean square error of each fit and the F test.

[2] = biological target: T1, CYP2D6 (Homo sapiens, UniProt P10635); assay: CYP2D6 inhibition, CYP2D6/AMMC kit (BD Biosciences), fluorescent substrate; type: in vitro ADME
T1 construct: purchased BD Biosciences 459200
T1 sequence (P10635 whole entry): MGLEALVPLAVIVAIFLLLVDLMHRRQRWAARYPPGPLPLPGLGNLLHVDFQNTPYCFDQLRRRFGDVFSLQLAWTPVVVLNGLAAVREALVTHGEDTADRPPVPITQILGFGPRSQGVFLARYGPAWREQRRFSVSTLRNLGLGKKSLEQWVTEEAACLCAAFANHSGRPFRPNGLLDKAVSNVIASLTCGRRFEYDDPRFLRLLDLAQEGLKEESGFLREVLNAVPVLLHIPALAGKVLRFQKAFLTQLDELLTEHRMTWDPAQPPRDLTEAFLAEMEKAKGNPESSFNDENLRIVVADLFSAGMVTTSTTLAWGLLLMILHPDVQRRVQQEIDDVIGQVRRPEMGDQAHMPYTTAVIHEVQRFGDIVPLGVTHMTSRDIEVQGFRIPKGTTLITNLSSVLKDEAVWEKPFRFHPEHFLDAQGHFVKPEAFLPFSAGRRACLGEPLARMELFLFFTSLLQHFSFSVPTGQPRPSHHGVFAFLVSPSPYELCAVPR
Description: This kit includes the use of a fluorescent P450 substrate (AMMC or 3-[2-(N,N-diethyl-N-methylamino)ethyl]-7-methoxy-4-methylcoumarin) and recombinant human P450.

[3] = system: Male Sprague-Dawley rats; assay: Forced swim test in rats; type: in vivo, rat; details: 5 mg/kg IP; for Antidepressant activity in forced swim test compared with imipramine (15 mg/kg IP): FIG. 12A
Procedure: When rats are placed in a cylinder of water from which they cannot escape, they will remain immobile in the water for the majority of the test.
Water was changed between trials, and the procedure involved a pretest and a 5-minute test separated by 24 hours. During the pretest, rats (adapted to the experimental room for no less than one hour) were placed in the cylinder for 15 minutes. Following this initial exposure, the rats were dried with towels and transferred to a “drying cage” situated under a warming lamp. […] The following day, rats were transferred to the experimental room and acclimated for at least one hour.
The rat was considered immobile when floating motionless or making only those movements necessary to keep its head above the surface of the water. Scores for each behavior (swimming or immobility) were expressed as total counts per 5-minute session. Statistical analysis was performed using ANOVA followed by the Tukey test for post-hoc comparisons.

[4] = biological target: T2, human norepinephrine transporter (hNET) (Homo sapiens, UniProt P23975); assay: Radioligand binding to cloned hNET, [3H]nisoxetine, HEK-293 cell membranes
T2 construct: expressed in transfected cells; host or cells: HEK-293, stably transfected
Procedure: (§2) HEK-293 cells expressing the recombinant hSERT or hDAT were incubated with Dulbecco's modified Eagles medium (MEM) supplemented with 0.1 mM nonessential amino acid solution for MEM, 5% v/v fetal bovine serum and 1 U/mL penicillin/streptomycin solution. Cells expressing the hNET transporter were incubated with Dulbecco's modified Eagles medium supplemented with 10% v/v fetal bovine serum and 100 U/mL penicillin/streptomycin solution and 2 mM L-glutamine. The cells were grown until 70-80% confluent on 175 cm^2 flasks in a humidified 10% CO2/90% air environment at 37° C., with the selecting antibiotic Geneticin sulfate at 250 μg/mL. The cells were incubated in 10% CO2, 90% air at 37° C. and 100% humidity.
(§3) Cell membranes containing hSERT, hNET, or hDAT were prepared from the cell lines to assay ligand binding for each of the transporters. […] The washed cells were incubated for 5 minutes at 37° C. in 10 mL solution 1 containing 100 mM ethylene glycol-bis N,N,N′,N′-tetraacetic acid (EGTA). The cells were then scraped from the flask surface with a rubber spatula, placed into a centrifuge tube, and collected by centrifugation at 1000×g for 5 minutes at 4° C. The resulting supernatant was discarded, and the cell pellet was resuspended in 0.5 to1.0 mL of the appropriate binding buffer (described below). The resuspended cell pellet was homogenized using a Polytron for 10 seconds at setting 6. The resulting homogenate was centrifuged at about 36,000×g for 10 minutes at 4° C. The supernatant was discarded, and the pellet was resuspended in the same volume of the appropriate binding buffer and centrifuged again. The supernatant was discarded, and the final pellet containing cell membranes was resuspended in the appropriate binding buffer and stored at −80° C. until use.
To assess binding to the cloned hNET, cells expressing hNET were homogenized in 50 mM Tris-HCl with 300 mM NaCl and 5 mM KCl (pH 7.4). The binding reaction consisted of 5 μg cell membrane protein, 0.5 nM [^3H]nisoxetine (nisoxetine HCl, [N-methyl-^3H], specific activity 82.0 Ci/mmol; Amersham, Arlington Hts., Ill.), and varying concentrations of either unlabeled nisoxetine or the test compound. A reaction to determine non-specific binding consisted of 5 μg cell membrane protein, 0.5 nM [^3H]nisoxetine, and 1 μM final concentration of unlabeled nisoxetine. The reactions were incubated at 22° C. for 60 minutes. Following incubation, the reactions were terminated by rapid filtration through separate GF/B filter strips pretreated with 0.2% polyethylenimine in a 48-well Brandel cell harvester. The cell membrane-containing filter strips were then rinsed five times with ice-cold 0.9% NaCl. After rinsing, individual filters were cut from the strip and placed in a scintillation vial containing 6.5 mL of Redi-Safe (Beckman-Coulter, Fullerton, Calif.).
as §1

[5] = biological target: hERG (Homo sapiens, UniProt Q12809); assay: hERG assay: block of rubidium ion (Rb+) efflux from cells expressing hERG; details: for Blocking of hERG channel compared with PRC200-SS: in words
hERG, sequence (Q12809 whole entry): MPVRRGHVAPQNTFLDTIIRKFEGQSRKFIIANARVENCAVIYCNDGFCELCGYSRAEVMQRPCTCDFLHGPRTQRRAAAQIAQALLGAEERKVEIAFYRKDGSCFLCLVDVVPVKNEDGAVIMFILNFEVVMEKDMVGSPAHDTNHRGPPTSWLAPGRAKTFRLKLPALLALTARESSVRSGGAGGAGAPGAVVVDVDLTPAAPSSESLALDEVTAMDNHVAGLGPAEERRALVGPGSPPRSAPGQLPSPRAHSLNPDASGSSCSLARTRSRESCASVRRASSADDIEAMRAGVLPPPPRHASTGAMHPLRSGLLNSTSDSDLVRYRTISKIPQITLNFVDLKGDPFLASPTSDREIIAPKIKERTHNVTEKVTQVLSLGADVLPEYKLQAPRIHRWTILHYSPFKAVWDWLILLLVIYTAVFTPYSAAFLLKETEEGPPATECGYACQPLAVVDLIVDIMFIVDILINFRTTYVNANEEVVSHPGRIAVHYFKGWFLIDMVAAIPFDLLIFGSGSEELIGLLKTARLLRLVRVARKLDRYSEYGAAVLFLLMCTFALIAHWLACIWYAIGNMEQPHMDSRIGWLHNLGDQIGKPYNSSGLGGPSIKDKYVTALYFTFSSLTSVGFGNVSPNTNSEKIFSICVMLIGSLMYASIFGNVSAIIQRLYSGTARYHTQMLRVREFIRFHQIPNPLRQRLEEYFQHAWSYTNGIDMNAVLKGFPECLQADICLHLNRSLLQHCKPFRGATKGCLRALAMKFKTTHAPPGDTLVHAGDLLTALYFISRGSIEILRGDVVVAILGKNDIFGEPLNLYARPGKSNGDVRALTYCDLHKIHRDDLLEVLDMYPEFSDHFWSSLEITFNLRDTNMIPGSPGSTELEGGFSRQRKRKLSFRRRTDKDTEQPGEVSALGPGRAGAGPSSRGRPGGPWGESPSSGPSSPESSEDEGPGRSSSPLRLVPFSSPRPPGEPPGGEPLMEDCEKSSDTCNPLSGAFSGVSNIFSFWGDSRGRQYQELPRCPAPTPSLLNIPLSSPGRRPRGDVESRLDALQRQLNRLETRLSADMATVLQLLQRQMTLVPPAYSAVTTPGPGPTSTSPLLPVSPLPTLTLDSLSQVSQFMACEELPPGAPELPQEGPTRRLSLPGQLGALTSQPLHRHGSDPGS
Procedure: Human “ether-a-go-go” (hERG) is an ion channel. Blockade of this channel can be predictive of causing cardiac arrhythmias in humans. hERG assays were performed to measure the ability of a compound to block rubidium ion (Rb^+) efflux from cells expressing hERG. Cells were pre-loaded with Rb^+, incubated with test compound, and then exposed to a buffer that opens the channel and allows the efflux of ions. Compounds as powder were dissolved in 100% DMSO to prepare 100 mM stock solutions. […] The stocks were stored at 23° C.
The range of doses for the test compounds was 30 nM through 100,000 nM.

[6] = biological target: T3, human serotonin transporter (hSERT) (Homo sapiens, UniProt P31645); assay: Radioligand binding to cloned hSERT, [3H]citalopram, HEK-293 cell membranes
T3 construct: expressed in transfected cells; host or cells: HEK-293, stably transfected
T3 sequence (P31645 whole entry): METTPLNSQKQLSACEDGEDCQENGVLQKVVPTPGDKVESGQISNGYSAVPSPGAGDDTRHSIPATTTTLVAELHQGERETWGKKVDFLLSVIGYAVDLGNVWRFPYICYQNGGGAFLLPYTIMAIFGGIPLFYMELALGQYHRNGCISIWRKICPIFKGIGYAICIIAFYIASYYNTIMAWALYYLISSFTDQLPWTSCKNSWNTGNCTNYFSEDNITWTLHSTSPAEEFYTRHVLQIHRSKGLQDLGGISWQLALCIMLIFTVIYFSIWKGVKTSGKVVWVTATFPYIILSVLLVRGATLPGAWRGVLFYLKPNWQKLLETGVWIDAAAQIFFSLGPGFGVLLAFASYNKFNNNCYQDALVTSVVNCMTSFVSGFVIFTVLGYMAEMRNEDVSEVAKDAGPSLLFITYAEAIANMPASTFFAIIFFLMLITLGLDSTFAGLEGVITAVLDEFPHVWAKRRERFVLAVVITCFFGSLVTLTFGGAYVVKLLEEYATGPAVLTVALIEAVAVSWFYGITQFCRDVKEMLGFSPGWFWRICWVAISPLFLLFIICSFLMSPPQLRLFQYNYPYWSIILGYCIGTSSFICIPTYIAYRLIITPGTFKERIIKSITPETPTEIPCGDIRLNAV
Procedure: as §2, §3
Radioligand binding assays for the indicated transporters were performed as follows. To assess binding to the cloned hSERT, cells expressing hSERT were homogenized in 50 mM Tris-HCl with 120 mM NaCl and 5 mM KCl (pH 7.4). The binding reaction consisted of 10 μg cell membrane protein, […] [^3H]citalopram (citalopram, [N-methyl-^3H], specific activity 79.0 Ci/mmol; PerkinElmer, Boston, Mass.), and varying concentrations of either unlabeled citalopram or the test compound. A reaction to determine non-specific binding consisted of 10 μg cell membrane protein, 0.5 nM [^3H]citalopram, and 1 μM final concentration of unlabeled citalopram. The reactions were incubated at 22° C. for 60 minutes. Following incubation, the reactions were terminated by rapid filtration through separate GF/B filter strips pretreated with 0.2% polyethylenimine in a 48-well Brandel cell harvester. The cell membrane-containing filter strips were then rinsed five times with ice-cold 0.9% NaCl. After rinsing, individual filters were cut from the strip and placed in a scintillation vial containing 6.5 mL of Redi-Safe (Beckman-Coulter, Fullerton, Calif.).
as §1

[7] = biological target: T4, human dopamine transporter (hDAT) (Homo sapiens, UniProt Q01959); assay: Radioligand binding to cloned hDAT, [3H]WIN35428, HEK-293 cell membranes
T4 construct: expressed in transfected cells; host or cells: HEK-293, stably transfected
T4 sequence (Q01959 whole entry): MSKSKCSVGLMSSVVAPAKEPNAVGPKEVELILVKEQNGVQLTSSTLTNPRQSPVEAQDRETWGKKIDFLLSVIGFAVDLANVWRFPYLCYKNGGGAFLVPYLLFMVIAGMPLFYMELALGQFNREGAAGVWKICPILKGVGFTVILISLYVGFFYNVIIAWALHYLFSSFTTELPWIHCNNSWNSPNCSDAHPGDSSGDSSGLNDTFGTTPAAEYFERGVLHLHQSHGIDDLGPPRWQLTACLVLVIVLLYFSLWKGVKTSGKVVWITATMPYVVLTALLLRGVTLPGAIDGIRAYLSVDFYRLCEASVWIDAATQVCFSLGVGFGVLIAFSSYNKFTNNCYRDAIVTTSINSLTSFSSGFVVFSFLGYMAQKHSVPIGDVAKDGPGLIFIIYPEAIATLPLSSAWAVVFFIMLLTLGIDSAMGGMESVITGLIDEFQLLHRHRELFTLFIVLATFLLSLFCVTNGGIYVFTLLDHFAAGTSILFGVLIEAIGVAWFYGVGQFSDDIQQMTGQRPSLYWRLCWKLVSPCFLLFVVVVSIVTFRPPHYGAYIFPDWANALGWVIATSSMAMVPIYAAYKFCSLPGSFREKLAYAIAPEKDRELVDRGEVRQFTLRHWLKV
Procedure: as §2, §3
To assess binding to the cloned hDAT, cells expressing hDAT were homogenized in 50 mM Tris-HCl with 120 mM NaCl (pH 7.4). The binding reaction contained 15 μg cell membrane protein, 1 nM [^3H]WIN35428 (WIN35428, [N-methyl-^3H], specific activity 85.9 Ci/mmol; PerkinElmer, Boston, Mass.), and varying concentrations of either unlabeled WIN35428 or the test compound. A reaction to determine non-specific binding contained 15 μg cell membrane protein, 1 nM [^3H]WIN35428, and 10 μM final concentration of unlabeled WIN35428. The reactions were incubated at 22° C. for 1 hour. Following incubation, the reactions were terminated by rapid filtration through separate GF/B filter strips pretreated with 0.2% polyethylenimine in a 48-well Brandel cell harvester. The cell membrane-containing filter strips were then rinsed five times with ice-cold 0.9% NaCl. After rinsing, individual filters were cut from the strip and placed in a scintillation vial containing 6.5 mL of Redi-Safe (Beckman-Coulter, Fullerton, Calif.).
as §1

[8] = biological target: T5, rat dopamine transporter, synaptosomal preparations (Rattus norvegicus, UniProt P23977); assay: Inhibition of [3H]DA reuptake in rat brain synaptosomes (striatum); type: biochemical
T5 construct: and striatal tissues for transport of dopamine; from tissue; host or cells: rat striatum synaptosomes (male Sprague-Dawley)
T5 sequence (P23977 whole entry): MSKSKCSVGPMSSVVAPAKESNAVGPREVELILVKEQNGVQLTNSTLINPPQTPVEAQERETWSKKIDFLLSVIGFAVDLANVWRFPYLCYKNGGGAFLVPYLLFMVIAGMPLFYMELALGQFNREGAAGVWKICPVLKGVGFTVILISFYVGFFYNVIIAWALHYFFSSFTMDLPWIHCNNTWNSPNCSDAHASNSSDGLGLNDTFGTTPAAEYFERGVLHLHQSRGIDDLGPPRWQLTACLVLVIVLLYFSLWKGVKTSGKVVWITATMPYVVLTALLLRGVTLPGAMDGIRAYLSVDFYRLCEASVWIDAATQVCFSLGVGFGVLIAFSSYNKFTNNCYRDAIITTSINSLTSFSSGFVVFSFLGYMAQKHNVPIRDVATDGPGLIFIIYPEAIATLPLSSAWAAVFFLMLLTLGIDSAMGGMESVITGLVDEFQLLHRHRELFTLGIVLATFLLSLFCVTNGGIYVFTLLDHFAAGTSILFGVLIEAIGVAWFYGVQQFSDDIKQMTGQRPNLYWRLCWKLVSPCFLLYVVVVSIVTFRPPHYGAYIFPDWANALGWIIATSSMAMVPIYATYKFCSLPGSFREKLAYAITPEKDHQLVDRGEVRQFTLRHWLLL
Procedure: (§4) The dissected tissues were separately homogenized in 20 volumes (cortical) or 40 volumes (striatal) of ice-cold, oxygenated HEPES buffer 0.32 M sucrose containing 11 mM glucose (pH 7.4) in a glass Potter-Elvehjem homogenizer with Teflon® pestle (8 strokes, 900 rpm). The homogenates were centrifuged at 1,000×g for 10 minutes. The resulting supernatant was decanted and further centrifuged at 20,000×g for 20 minutes at 4° C. […] The synaptosomal protein concentration was determined by using the BCA assay (Pierce Biotechnology Inc, Rockford, Ill.), according to the manufacturer's instructions. Synaptosomal protein (1.0-2.5 mg) was suspended in 1 mL oxygenated incubation buffer as defined above. Test amine compound was pre-incubated with the synaptosomal preparation for 30 minutes at 37° C. in a shaking water bath (80 oscillations/minute).

[9] = biological target: human norepinephrine transporter (Homo sapiens, UniProt P23975); assay: Inhibition of [3H]NE transport into HEK-293 cells expressing the human transporter
[10] = biological target: human serotonin transporter (Homo sapiens, UniProt P31645); assay: Inhibition of [3H]5-HT transport into HEK-293 cells expressing the human transporter
human serotonin transporter, sequence (P31645 whole entry): as the sequence (P31645 whole entry) above

[11] = biological target: T6, rat norepinephrine transport, synaptosomal preparations (Rattus norvegicus, UniProt Q63380); assay: Inhibition of [3H]NE reuptake in rat brain synaptosomes (occipital cortex); type: biochemical
T6 construct: from tissue; host or cells: rat occipital cortex synaptosomes (male Sprague-Dawley)
Procedure: as §4

[12] = biological target: T7, rat serotonin transporter, synaptosomal preparations (Rattus norvegicus, UniProt P31652); assay: Inhibition of [3H]5-HT reuptake in rat brain synaptosomes (frontal cortex); type: biochemical
T7 construct: from tissue; host or cells: rat frontal cortex synaptosomes (male Sprague-Dawley)
T7 sequence (P31652 whole entry): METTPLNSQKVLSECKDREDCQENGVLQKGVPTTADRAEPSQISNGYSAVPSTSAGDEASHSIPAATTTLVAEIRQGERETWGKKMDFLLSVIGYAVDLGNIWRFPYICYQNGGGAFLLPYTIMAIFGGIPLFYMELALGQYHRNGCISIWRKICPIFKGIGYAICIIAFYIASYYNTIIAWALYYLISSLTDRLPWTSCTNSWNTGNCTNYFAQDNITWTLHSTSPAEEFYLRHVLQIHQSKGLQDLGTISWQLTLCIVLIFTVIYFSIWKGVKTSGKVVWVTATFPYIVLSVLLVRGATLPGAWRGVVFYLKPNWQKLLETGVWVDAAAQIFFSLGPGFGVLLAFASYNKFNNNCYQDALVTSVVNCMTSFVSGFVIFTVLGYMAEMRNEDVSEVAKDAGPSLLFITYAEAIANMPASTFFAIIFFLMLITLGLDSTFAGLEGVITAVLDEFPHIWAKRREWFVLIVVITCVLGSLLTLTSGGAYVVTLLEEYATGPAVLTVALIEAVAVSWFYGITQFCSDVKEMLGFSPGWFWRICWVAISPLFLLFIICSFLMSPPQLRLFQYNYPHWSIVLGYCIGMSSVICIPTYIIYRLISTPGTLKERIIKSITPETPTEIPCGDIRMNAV
Procedure: as §4

[13] = system: rat 5-HT, NE and DA transport, synaptosomal preparations; assay: Rat brain synaptosomal transport: rank order of potency; type: biochemical; details: from Ki values; S = 5HT, N = NE, D = DA
Procedure: as §4

[14] = recombinant human P450, AMMC substrate, read-out: Mean CYP2D6 (IC50)

| SMILES | Potency (rank-order of potency of binding; S = hSERT, N = hNET, D = hDAT) [1] | Potency Range (difference between most potent and least potent binding) [1] [fold] | IC50 [2, 14] [nM] | Immobility in forced swim test vs saline [3] | Swimming in forced swim test vs saline [3] | Antidepressant activity in forced swim test compared with imipramine (15 mg/kg IP) [3] | IC50 [5] [µM] | Blocking of hERG channel compared with PRC200-SS [5] | also measured |
| --- | --- | --- | --- | --- | --- | --- | --- | --- | --- |
| CNC[C@H](c1ccc2ccccc2c1)[C@H](F)c1ccccc1 [MCJ001-F-SS, (2S,3S)-3-fluoro-N-methyl-2-(naphthalen-2-yl)-3-phenylpropan-1-amine] | S > N > D | 29 | 60 | statistically (P<0.04) less immobility | statistically (P<0.04) more swimming behavior | antidepressant activity that was similar to that observed in rats treated with the positive control | 51.8 | weaker than PRC200-SS at blocking this channel | Kd [4]: 1.3 ± 0.2 nM; Kd [6]: 0.82 ± 0.09 nM; Binding at hSERT compared to PRC200-SS ([6]; in words): greater binding at hSERT; Kd [7]: 23.5 ± 0.9 nM; Binding at hDAT compared to PRC200-SS ([7]; in words): Enhanced binding to hDAT |
| CNC[C@H](c1ccc2ccccc2c1)[C@H](OC(C)=O)c1ccccc1 [MCJ001-OAc-SS, (1S,2S)-3-(methylamino)-2-(naphthalen-2-yl)-1-phenylpropyl acetate] | N > S > D | 3.4 | 600 | statistically (P<0.04) less immobility | statistically (P<0.04) more swimming behavior | antidepressant activity that was similar to that observed in rats treated with the positive control | – | weaker than PRC200-SS at blocking this channel | Potency of inhibition at CYP2D6, in words ([2]; compared with PRC200-SS): markedly reduced the potency of inhibition at CYP2D6; IC50 ([5]; read-out: hERG (IC50), Rb+ efflux, eight doses in duplicate): 78.8 µM; Kd ([6]; Geometric Mean ± SEM, HCl salts, read-out: Equilibrium Dissociation Constant (KD) for Transporter Binding, hSERT (S)): 55 ± 6 nM; Kd ([7]; Geometric Mean ± SEM, HCl salts, read-out: Equilibrium Dissociation Constant (KD) for Transporter Binding, hDAT (D)): 150 ± 20 nM |
| CNC[C@H](c1ccc2ccccc2c1)[C@H](O)c1ccccc1 [PRC200-SS, (1S,2S)-3-(methylamino)-2-(naphthalen-2-yl)-1-phenylpropan-1-ol, reference compound] | N > S > D | 45 | – | statistically (P<0.04) less immobility | statistically (P<0.04) more swimming behavior | antidepressant activity that was similar to that observed in rats treated with the positive control | 32.6 | – | Ki [8]: 61 ± 4 nM; Potency (rank-order of potency of binding; S = hSERT, N = hNET, D = hDAT) ([1]; listed as PRC200): N>S>D; Ki [9]: 6 ± 2 nM; Ki [10]: 2.8 ± 0.4 nM; IC50 [2]: 80 nM; Ki [11]: 6 ± 2 nM; Ki [12]: 2.12 ± 0.9 nM; Potency (rank order, transport into rat brain synaptosomal preparations) [13]: S > N > D |
